The record followed here is the supplement of paper PMC11208160.
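Also: IS621 bridge recombinase in Escherichia coli cells against a fixed T5 target plasmid.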

The data set is described as follows: recombinant UMI read abundance after kanamycin selection (control-corrected) (log10(CPM+1)); higher = more efficient recombination; extreme values may be limits of the assay; sequences stand for … in AGTGCAGAGAAAATCGGCCAGTTTTCTCTGCCTGCAGTCCGCATGCCGTGGGACCCCTTGGGTTCTAACCTGTTGCCTAGATTTATGCAGCGGACTGCCTTTCTCCCAAAGTGATAAACCGG…AGGTTGGTTTCACT; site = the 11-nt donor. A digest of the protocol:
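In Escherichia coli, a pool of donor and donor-binding-loop pairs, each with a 12-nt UMI, was tested for the IS621 bridge recombinase. Plating was on IPTG (0.07 mM) plus kanamycin, or without selection, in two replicates. Recombinant UMIs were amplified by PCR across the donor–target junction and sequenced, and counts were reported as log10(CPM+1) after averaging and control-derived scaling.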
In the case of “CGGGACTCATGGACCGGTTTTCCCGGTAATCCGTATTTGCC (site CGGGAATCTGG)”, the “recombinant UMI read abundance (log10)” value was found to be 2.14.

On to “CGGGACTCATGGACCGGTTTTCCCGGTAATCCGTATTTGCC (site CGGGACTCTGG)”, for which the “recombinant UMI read abundance (log10)” value is 3.01.

Consider “CGGGACTCATGGACCGGTTTTCCCGGTAATCCGTATTTGCC (site CGGGAGTCTGG)”, for which the “recombinant UMI read abundance (log10)” value is 0.

Turning to “CGGGACTCATGGACCGGTTTTCCCGGTAATCCGTATTTGCC (site CGGGATTCTGG)”, the “recombinant UMI read abundance (log10)” value amounted to 1.77.

With “CGGGAGTCATGGACCGGTTTTCCCGGTAATCCGTATTTGCA (site CGGGAGTCTAG)”, the “recombinant UMI read abundance (log10)” value was 1.74.

As for “CGGGAGTCATGGACCGGTTTTCCCGGTAATCCGTATTTGCA (site CGGGAGTCTCG)”, the “recombinant UMI read abundance (log10)” value was 2.73.

In the case of “CGGGAGTCATGGACCGGTTTTCCCGGTAATCCGTATTTGCA (site CGGGAGTCTGG)”, the “recombinant UMI read abundance (log10)” value was 1.15.

For “CGGGAGTCATGGACCGGTTTTCCCGGTAATCCGTATTTGCA (site CGGGAGTCTTG)”, the “recombinant UMI read abundance (log10)” value was 2.89.

Regarding “CGGGCGTCATGGACCGGTTTTCCCGGTAATCCGTATTTGCC (site CGGGAGTCTGG)”, the “recombinant UMI read abundance (log10)” value turned out to be 0.

Turning to “CGGGCGTCATGGACCGGTTTTCCCGGTAATCCGTATTTGCC (site CGGGCGTCTGG)”, the “recombinant UMI read abundance (log10)” value is 2.89.

For the sequence “CGGGCGTCATGGACCGGTTTTCCCGGTAATCCGTATTTGCC (site CGGGGGTCTGG)”, the “recombinant UMI read abundance (log10)” value stood at 0.

On to “CGGGCGTCATGGACCGGTTTTCCCGGTAATCCGTATTTGCC (site CGGGTGTCTGG)”, for which the “recombinant UMI read abundance (log10)” value is 0.

As to “CGGGGAACATGGACCGGTTTTCCCGGTAATCCGTATTTGTT (site CGAGGAACTAA)”, the “recombinant UMI read abundance (log10)” value was found to be 2.44.

With “CGGGGAACATGGACCGGTTTTCCCGGTAATCCGTATTTGTT (site CGCGGAACTAA)”, the “recombinant UMI read abundance (log10)” value was determined as 0.00411.

Consider “CGGGGAACATGGACCGGTTTTCCCGGTAATCCGTATTTGTT (site CGGGGAACTAA)”, for which the “recombinant UMI read abundance (log10)” value turned out to be 2.6.

“CGGGGAACATGGACCGGTTTTCCCGGTAATCCGTATTTGTT (site CGTGGAACTAA)”: the “recombinant UMI read abundance (log10)” value stood at 0.548.

For “CGGGTACCATGGACCGGTTTTCCCGGTAATCCGTATTTGTA (site CGGGTACCTTA)”, the “recombinant UMI read abundance (log10)” value came to 0.00704.

Take “CGGGTCACATGGACCGGTTTTCCCGGTAATCCGTATTTGGC (site CGGGTCACTGC)”: the “recombinant UMI read abundance (log10)” value was 3.54.

On to “CGGGTGTCATGGACCGGTTTTCCCGGTAATCCGTATTTGCC (site CGGGAGTCTGG)”, for which the “recombinant UMI read abundance (log10)” value was 0.659.

Consider “CGGGTGTCATGGACCGGTTTTCCCGGTAATCCGTATTTGCC (site CGGGCGTCTGG)”, for which the “recombinant UMI read abundance (log10)” value amounted to 1.74.

Take “CGGGTGTCATGGACCGGTTTTCCCGGTAATCCGTATTTGCC (site CGGGGGTCTGG)”: the “recombinant UMI read abundance (log10)” value was 0.

Regarding “CGGGTGTCATGGACCGGTTTTCCCGGTAATCCGTATTTGCC (site CGGGTGTCTGG)”, the “recombinant UMI read abundance (log10)” value is 2.69.

“CGGGTTCCATGGACCGGTTTTCCCGGTAATCCGTATTTGTT (site CGGAATCCTAA)”: the “recombinant UMI read abundance (log10)” value was 0.00595.

For the sequence “CGGGTTCCATGGACCGGTTTTCCCGGTAATCCGTATTTGTT (site CGGGTTCCTAA)”, the “recombinant UMI read abundance (log10)” value was found to be 0.776.

For the sequence “CGGTAACCATGGACCGGTTTTCCCGGTAATCCGTATTTGAT (site CGGAAACCTAT)”, the “recombinant UMI read abundance (log10)” value is 0.

As for “CGGTAACCATGGACCGGTTTTCCCGGTAATCCGTATTTGAT (site CGGCAACCTAT)”, the “recombinant UMI read abundance (log10)” value was 0.00415.

For the sequence “CGGTAACCATGGACCGGTTTTCCCGGTAATCCGTATTTGAT (site CGGGAACCTAT)”, the “recombinant UMI read abundance (log10)” value was 0.

With “CGGTAACCATGGACCGGTTTTCCCGGTAATCCGTATTTGAT (site CGGTAACCTAT)”, the “recombinant UMI read abundance (log10)” value came to 0.

Regarding “CGGTAGACATGGACCGGTTTTCCCGGTAATCCGTATTTGCA (site AGGAAGACTTG)”, the “recombinant UMI read abundance (log10)” value was found to be 0.

Regarding “CGGTAGACATGGACCGGTTTTCCCGGTAATCCGTATTTGCA (site CGGTAGACTTG)”, the “recombinant UMI read abundance (log10)” value was 2.84.

With “CGGTAGCCATGGACCGGTTTTCCCGGTAATCCGTATTTGCT (site CGGTAGCCTAG)”, the “recombinant UMI read abundance (log10)” value was 0.793.

“CGGTATCCATGGACCGGTTTTCCCGGTAATCCGTATTTGTT (site CGGAATCCTAA)”: the “recombinant UMI read abundance (log10)” value turned out to be 0.

On to “CGGTATCCATGGACCGGTTTTCCCGGTAATCCGTATTTGTT (site CGGCATCCTAA)”, for which the “recombinant UMI read abundance (log10)” value was 0.493.

Regarding “CGGTATCCATGGACCGGTTTTCCCGGTAATCCGTATTTGTT (site CGGGATCCTAA)”, the “recombinant UMI read abundance (log10)” value stood at 0.0113.

Consider “CGGTATCCATGGACCGGTTTTCCCGGTAATCCGTATTTGTT (site CGGTATCCTAA)”, for which the “recombinant UMI read abundance (log10)” value is 0.562.

With “CGGTCGTCATGGACCGGTTTTCCCGGTAATCCGTATTTGCA (site CGGTCGTCTTG)”, the “recombinant UMI read abundance (log10)” value amounted to 1.71.

Consider “CGGTGGCCATGGACCGGTTTTCCCGGTAATCCGTATTTGGG (site CGGTGGCCTCC)”, for which the “recombinant UMI read abundance (log10)” value is 0.0062.

As for “CGGTTATCATGGACCGGTTTTCCCGGTAATCCGTATTTGCT (site CGATCATCTAG)”, the “recombinant UMI read abundance (log10)” value is 0.

On to “CGGTTATCATGGACCGGTTTTCCCGGTAATCCGTATTTGCT (site CGGTTATCTAG)”, for which the “recombinant UMI read abundance (log10)” value was 2.65.

Take “CGGTTTACATGGACCGGTTTTCCCGGTAATCCGTATTTGCT (site CAGTTTACTAG)”: the “recombinant UMI read abundance (log10)” value came out at 0.

For the sequence “CGGTTTACATGGACCGGTTTTCCCGGTAATCCGTATTTGCT (site CCGTTTACTAG)”, the “recombinant UMI read abundance (log10)” value was 0.391.

In the case of “CGGTTTACATGGACCGGTTTTCCCGGTAATCCGTATTTGCT (site CGGTTTACTAG)”, the “recombinant UMI read abundance (log10)” value is 1.33.

As to “CGGTTTACATGGACCGGTTTTCCCGGTAATCCGTATTTGCT (site CTGTTTACTAG)”, the “recombinant UMI read abundance (log10)” value is 1.21.

With “CGTAAAGCATGGACCGGTTTTCCCGGTAATCCGTATTTGAT (site CATAAAGCTAT)”, the “recombinant UMI read abundance (log10)” value amounted to 0.355.

As for “CGTAAAGCATGGACCGGTTTTCCCGGTAATCCGTATTTGAT (site CCTAAAGCTAT)”, the “recombinant UMI read abundance (log10)” value is 0.

For “CGTAAAGCATGGACCGGTTTTCCCGGTAATCCGTATTTGAT (site CGTAAAGCTAT)”, the “recombinant UMI read abundance (log10)” value stood at 2.44.

With “CGTAAAGCATGGACCGGTTTTCCCGGTAATCCGTATTTGAT (site CTTAAAGCTAT)”, the “recombinant UMI read abundance (log10)” value worked out at 0.

Turning to “CGTAACACATGGACCGGTTTTCCCGGTAATCCGTATTTGCC (site CGTAACACTGG)”, the “recombinant UMI read abundance (log10)” value is 2.01.

“CGTAAGACATGGACCGGTTTTCCCGGTAATCCGTATTTGAG (site CGTAAGACTCT)”: the “recombinant UMI read abundance (log10)” value is 1.73.

On to “CGTAAGACATGGACCGGTTTTCCCGGTAATCCGTATTTGAG (site CGTCAGACTCT)”, for which the “recombinant UMI read abundance (log10)” value came out at 0.0684.

Regarding “CGTAAGACATGGACCGGTTTTCCCGGTAATCCGTATTTGAG (site CGTGAGACTCT)”, the “recombinant UMI read abundance (log10)” value was found to be 0.0574.

On to “CGTAAGACATGGACCGGTTTTCCCGGTAATCCGTATTTGAG (site CGTTAGACTCT)”, for which the “recombinant UMI read abundance (log10)” value stood at 0.396.

For the sequence “CGTACATCATGGACCGGTTTTCCCGGTAATCCGTATTTGCG (site CGTACATCTCG)”, the “recombinant UMI read abundance (log10)” value is 1.29.

On to “CGTACGTCATGGACCGGTTTTCCCGGTAATCCGTATTTGTT (site AGTACGTCTAA)”, for which the “recombinant UMI read abundance (log10)” value came to 0.0741.

In the case of “CGTACGTCATGGACCGGTTTTCCCGGTAATCCGTATTTGTT (site CGTACGTCTAA)”, the “recombinant UMI read abundance (log10)” value worked out at 0.728.

For the sequence “CGTACGTCATGGACCGGTTTTCCCGGTAATCCGTATTTGTT (site GGTACGTCTAA)”, the “recombinant UMI read abundance (log10)” value amounted to 0.0115.

Turning to “CGTACGTCATGGACCGGTTTTCCCGGTAATCCGTATTTGTT (site TGTACGTCTAA)”, the “recombinant UMI read abundance (log10)” value was 0.00974.

In the case of “CGTACTCCATGGACCGGTTTTCCCGGTAATCCGTATTTGCA (site CGTACTCCTTG)”, the “recombinant UMI read abundance (log10)” value came out at 0.892.

On to “CGTAGAACATGGACCGGTTTTCCCGGTAATCCGTATTTGTT (site CGTAGAACTAA)”, for which the “recombinant UMI read abundance (log10)” value was found to be 0.685.

“CGTAGAACATGGACCGGTTTTCCCGGTAATCCGTATTTGTT (site CGTCGAACTAA)”: the “recombinant UMI read abundance (log10)” value came out at 0.018.

With “CGTAGAACATGGACCGGTTTTCCCGGTAATCCGTATTTGTT (site CGTGGAACTAA)”, the “recombinant UMI read abundance (log10)” value was found to be 0.00623.

As for “CGTAGAACATGGACCGGTTTTCCCGGTAATCCGTATTTGTT (site CGTTGAACTAA)”, the “recombinant UMI read abundance (log10)” value turned out to be 0.0104.

With “CGTAGTGCATGGACCGGTTTTCCCGGTAATCCGTATTTGTT (site CGTAGTGCTAA)”, the “recombinant UMI read abundance (log10)” value was determined as 0.84.

“CGTCCAGCATGGACCGGTTTTCCCGGTAATCCGTATTTGCT (site CGTCCAGCTAG)”: the “recombinant UMI read abundance (log10)” value is 0.438.

Turning to “CGTCGAACATGGACCGGTTTTCCCGGTAATCCGTATTTGAA (site CGTCGAACTTT)”, the “recombinant UMI read abundance (log10)” value amounted to 0.822.

For “CGTCGAACATGGACCGGTTTTCCCGGTAATCCGTATTTGTT (site CGTAGAACTAA)”, the “recombinant UMI read abundance (log10)” value was 0.

Regarding “CGTCGAACATGGACCGGTTTTCCCGGTAATCCGTATTTGTT (site CGTCGAACTAA)”, the “recombinant UMI read abundance (log10)” value is 0.

With “CGTCGAACATGGACCGGTTTTCCCGGTAATCCGTATTTGTT (site CGTGGAACTAA)”, the “recombinant UMI read abundance (log10)” value amounted to 0.
